Source: patent publication US5013850A, “4-ethyl and 4-ethenyl-5-hydroxy-2(5H)-furanones substituted on alpha carbon of the ethyl or ethenyl side chain with a long chain alkyl group and on the beta carbon with a polar group, as anti-inflammatory agents” (Allergan, Inc., priority 1990, dated 1991)

Columns and labels:
[1] = molecular target: bee venom phospholipase A2 (Apis mellifera, UniProt P00630); test: biochemical; details: read-out: IC50, Phospholipase A2 Assay (50% inhibition of bee venom phospholipase A2)
[2] = tested on: phosphoinositide-specific phospholipase C; details: Bennett et al, Molecular Pharmacology 32:587-593 (1987); cited from earlier work
[3] = U.S. Pat. No. 4,447,445; European Patent Application No. 0133376; cited from earlier work

bee venom phospholipase A2, sequence (P00630 34-167 limits assumed): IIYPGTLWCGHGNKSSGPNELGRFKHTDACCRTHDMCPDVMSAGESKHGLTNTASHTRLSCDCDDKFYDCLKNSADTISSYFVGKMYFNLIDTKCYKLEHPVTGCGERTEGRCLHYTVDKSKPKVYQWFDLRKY

SMILES	IC50 [1] [nM]	inhibition of phosphoinositide-specific phospholipase C [2]	biological activity [3]
CCCCCCCCCCCCC(=CC(=O)C(F)(F)F)C1=CC(=O)OC1O (centres unmarked) [Compound 23, (E),(Z)-4-[(1-Dodecyl-3-oxo-4,4,4-trifluoro)-1-butenyl]-5-hydroxy-2(5H)-furanone]	40	–	–
CC(=CCCC1=CCC(C2=CC(=O)OC2O)OC1O)CCC1=C(C)CCCC1(C)C (centres unmarked) [Compound 1]	30	This activity has been reported for manoalide	anti-inflammatory, immunosuppressive and analgesic properties
CCCCCCCCCCCCC(CC(=O)O)C1=CC(=O)OC1O (centres unmarked) [Compound 12, 4-[1-(Carboxymethyl)tridecyl]-5-hydroxy-2(5H)-furanone]	130	–	–
CCCCCCCCCCCCC(CP(=O)(OCC)OCC)C1=CC(=O)OC1O (centres unmarked) [Compound 13, 4-[1-(diethylphosphonyl)methyl]tridecyl-5-hydroxy-2(5H)-furanone]	100	–	–
CCCCCCCCCCCCC(CC(C)=O)C1=CC(=O)OC1O (centres unmarked) [Compound 8, 4-[1-(2-oxopropyl)tridecyl]-5-hydroxy-2(5H)-furanone]	90	–	–
CC(=CCCC(C=O)=CCC(O)C1=CC(=O)OC1O)CCC1=C(C)CCCC1(C)C (centres unmarked) [Compound 2]	–	–	anti-inflammatory inflammatory activity
CCCCCCCCCCCCC(CC(=O)OCC)C1=CC(=O)OC1O (centres unmarked) [Compound 7, 4-[1-(Ethoxycarbonylmethyl)tridecyl]-5-hydroxy-2(5H)-furanone]	260	–	–
CCCCCCCCCCCCC(CC(=O)C(F)(F)F)C1=CC(=O)OC1O (centres unmarked) [Compound 9, 4-[1-(3,3,3-Trifluoro-2-oxo)propyl]tridecyl-5-hydroxy-2(5H)-furanone]	420	–	–
CCCCCCCCCCCCC(CC(C)(C)O)C1=CC(=O)OC1O (centres unmarked) [Compound 10, 4-[1-(2-Hydroxy-2-methylpropyl)tridecyl]-5-hydroxy-2(5H)-furanone]	> 1000	–	–
CCCCCCCCCCCCC(C1=CC(=O)OC1O)C(C(=O)OC)C(=O)OC (centres unmarked) [Compound 11, 4-[-(1,1-Bis(carbomethoxy)methyl)tridecyl]-5-hydroxy-2(5H)-furanone]	80	–	–
CC(=CCCC(C=O)=CC=CC1=CC(=O)OC1O)CCC1=C(C)CCCC1(C)C (centres unmarked) [Compound 3]	–	–	anti-inflammatory inflammatory activity
CCCCCCCCCCCCC(=CP(=O)(OCC)OCC)C1=CC(=O)OC1O (centres unmarked) [Compound 24, 4-[(1-Dodecyl-2-diethylphosphonyl)-1-ethenyl]-5-hydroxy-2(5H)-furanone]	80	–	–
